# Measured values from patent US11332459B2 (TEIJIN PHARMA LIMITED, priority 2017, dated 2022).
# pIC50: −log10 of the molar value. Counter-ions that a name gives are not always drawn.
# Target: T1, human TRPC6 (Homo sapiens, UniProt Q9Y210)
# T1 construct: expressed in transfected cells
# T1 sequence (Q9Y210 1-931): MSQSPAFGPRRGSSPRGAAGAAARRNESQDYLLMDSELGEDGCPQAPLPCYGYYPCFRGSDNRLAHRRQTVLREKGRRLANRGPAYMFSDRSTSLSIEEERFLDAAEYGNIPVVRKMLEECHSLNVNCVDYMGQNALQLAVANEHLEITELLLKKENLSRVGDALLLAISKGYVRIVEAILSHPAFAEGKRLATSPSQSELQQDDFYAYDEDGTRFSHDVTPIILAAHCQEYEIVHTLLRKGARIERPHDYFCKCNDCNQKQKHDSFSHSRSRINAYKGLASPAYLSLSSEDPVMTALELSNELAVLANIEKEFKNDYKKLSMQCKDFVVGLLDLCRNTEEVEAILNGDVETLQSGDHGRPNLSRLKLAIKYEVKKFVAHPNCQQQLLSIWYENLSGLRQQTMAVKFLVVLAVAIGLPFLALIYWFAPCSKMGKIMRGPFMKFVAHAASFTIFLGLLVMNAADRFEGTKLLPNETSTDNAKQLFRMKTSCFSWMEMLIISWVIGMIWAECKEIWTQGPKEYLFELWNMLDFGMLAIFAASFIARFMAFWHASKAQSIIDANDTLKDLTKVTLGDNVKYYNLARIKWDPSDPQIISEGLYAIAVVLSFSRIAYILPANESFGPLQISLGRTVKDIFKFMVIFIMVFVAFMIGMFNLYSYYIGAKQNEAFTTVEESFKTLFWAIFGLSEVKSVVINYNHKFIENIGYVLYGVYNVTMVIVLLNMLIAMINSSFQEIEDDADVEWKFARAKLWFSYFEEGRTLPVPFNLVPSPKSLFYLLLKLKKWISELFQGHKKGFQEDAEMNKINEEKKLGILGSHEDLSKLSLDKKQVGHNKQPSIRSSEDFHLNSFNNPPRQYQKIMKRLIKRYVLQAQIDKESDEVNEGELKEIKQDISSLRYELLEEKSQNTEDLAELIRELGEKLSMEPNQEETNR
# Test: TRPC6 calcium flux assay (FLIPR, OAG-stimulated calcium influx)
# Type: cell-based
# Conditions: HEK293 cells stably transfected with human TRPC6, read-out: hTRPC6 Potency
# Outline: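 IC50 derived by plotting background-corrected peak fluorescence (180 s window, normalized to OAG-triggered signal vs buffer) against dose. Stable human TRPC6 HEK293 line was dye-loaded, exposed to compound 25 min, then challenged with 50 uM final OAG in 2 mM Ca2+ HEPES buffer pH 7.2, 0.5% DMSO.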
row,pIC50,SMILES
1,8.96,"N#Cc1ccc(Cn2c(N3CC[C@@H](F)[C@H](N)C3)nc3cc(F)ccc32)nc1 [Example 49, 6-((2-((3R,4R)-3-amino-4-fluoropiperidin-1-yl)-5-fluoro-1H-benzo[d]imidazol-1-yl)methyl)nicotinonitrile hydrochloride]"
2,8.06,"CC[C@H](c1ccc(C#N)cn1)n1c(N2CCC[C@H](N)C2)nc2ccccc21 [Example 299, 6-((R)-1-(2-((S)-3-aminopiperidin-1-yl)-1H-benzo[d]imidazol-1-yl)propyl)nicotinonitrile hydrochloride]"
3,7.30,"N#Cc1ccc(Cn2c(N3CC[C@@H](O)[C@H](N)C3)nc3ccc(F)cc32)nc1 [Example 207, 6-((2-((3R,4R)-3-amino-4-hydroxypiperidin-1-yl)-6-fluoro-1H-benzo[d]imidazol-1-yl)methyl)nicotinonitrile]"
4,< 5.43,"CC(=O)NC1CCCN(C(=O)Cn2c(N3CC[C@@H](F)[C@H](N)C3)nc3cc(F)c(F)cc32)C1 (stereo partly drawn) [Example 535, N-(1-(2-(2-((3R,4R)-3-amino-4-fluoropiperidin-1-yl)-5,6-difluoro-1H-benzo[d]imidazol-1-yl)acetyl)piperidin-3-yl)acetamide]"
5,7.86,"N#Cc1ccc(Cn2c(N3CCC[C@@]4(CCCN4)C3)nc3ccccc32)nc1 [Example 136, 6-((2-((5S)-1,7-diazaspiro[4.5]decan-7-yl)-1H-benzimidazol-1-yl)methyl)-3-pyridinecarbonitrile]"
6,9.31,"N#Cc1ccc(Cn2c(N3CC[C@@H](F)[C@H](N)C3)nc3cc(Cl)c(C(F)(F)F)cc32)nc1 [Example 127, 6-((2-((3R,4R)-3-amino-4-fluoro-1-piperidinyl)-5-chloro-6-(trifluoromethyl)-1H-benzimidazol-1-yl)methyl)-3-pyridinecarbonitrile]"
7,6.80,"C[C@H](c1ccc(C#N)cn1)n1c(N2CC[C@@H](F)[C@H](N)C2)nc2cc(C#N)ccc21 [Example 224, 2-((3R,4R)-3-amino-4-fluoropiperidin-1-yl)-1-((R)-1-(5-cyanopyridin-2-yl)ethyl)-1H-benzo[d]imidazole-5-carbonitrile hydrochloride]"
8,6.65,"CN[C@@H]1CN(c2nc3cc(C#N)ccc3n2Cc2ncc(Cl)cn2)CC[C@H]1F [Example 284, 1-((5-chloro-2-pyrimidinyl)methyl)-2-((3R,4R)-4-fluoro-3-(methylamino)-1-piperidinyl)-1H-benzimidazole-5-carbonitrile]"
9,< 5.43,"N[C@@H]1CN(c2nc3ccc(F)cc3n2CC(=O)NCCC(F)(F)F)CC[C@H]1F [Example 673, 2-(2-((3R,4R)-3-amino-4-fluoropiperidin-1-yl)-6-fluoro-1H-benzo[d]imidazol-1-yl)-N-(3,3,3-trifluoropropyl)acetamide]"
10,< 5.43,"COCC1(C#N)CCN(C(=O)Cn2c(N3CC[C@@H](F)[C@H](N)C3)nc3cc(F)c(F)cc32)CC1 [Example 658, 1-(2-(2-((3R,4R)-3-amino-4-fluoropiperidin-1-yl)-5,6-difluoro-1H-benzo[d]imidazol-1-yl)acetyl)-4-(methoxymethyl)piperidine-4-carbonitrile]"
11,7.35,"CS(=O)(=O)c1ccc2nc(N3CC[C@@H](F)[C@H](N)C3)n(Cc3ccc(Cl)cn3)c2c1 [Example 29, (3R,4R)-1-(1-((5-chloropyridin-2-yl)methyl)-6-(methylsulfonyl)-1H-benzo[d]imidazol-2-yl)-4-fluoropiperidin-3-amine]"
12,8.21,"CN(C(=O)Cn1c(N2CC[C@@H](F)[C@H](N)C2)nc2cc(F)c(F)cc21)c1nccs1 [Example 501, 2-(2-((3R,4R)-3-amino-4-fluoropiperidin-1-yl)-5,6-difluoro-1H-benzo[d]imidazol-1-yl)-N-methyl-N-(thiazol-2-yl)acetamide]"
13,7.62,"N#Cc1ccc(Cn2c(N3CCC[C@H](N)C3)nc3cc(C#N)ccc32)nc1 [Example 52, (S)-2-(3-aminopiperidin-1-yl)-1-((5-cyanopyridin-2-yl)methyl)-1H-benzo[d]imidazole-5-carbonitrile]"
14,6.17,"C[C@H](c1ccc(F)cc1F)n1c(N2CC[C@@H](F)[C@H](N)C2)nc2cc(F)c(F)cc21 [Example 330, (3R,4R)-1-(1-((1R)-1-(2,4-difluorophenyl)ethyl)-5,6-difluoro-1H-benzimidazol-2-yl)-4-fluoro-3-piperidinamine]"
15,< 5.43,"N[C@H]1CCCN(c2nc3ccccc3n2Cc2ccc(C(=O)O)cn2)C1 [Example 434, (S)-6-((2-(3-aminopiperidin-1-yl)-1H-benzo[d]imidazol-1-yl)methyl)nicotinic acid]"
16,7.83,"N#Cc1ccc(Cn2c(N3CC[C@H](F)[C@H](N)C3)nc3cc(C#N)ccc32)nc1 [Example 69, 2-((3R,4S)-3-amino-4-fluoropiperidin-1-yl)-1-((5-cyanopyridin-2-yl)methyl)-1H-benzo[d]imidazole-5-carbonitrile]"
17,5.47,"N[C@@H]1CCCN(c2nc3ccccc3n2Cc2ccccc2Cl)C1 [Example 374, (R)-1-(1-(2-chlorobenzyl)-1H-benzo[d]imidazol-2-yl)piperidin-3-amine]"
18,6.60,"CC1(CN)CCN(c2nc3ccccc3n2Cc2ccc(C#N)cc2)C1 (racemic) [Example 164, 4-((2-(3-(aminomethyl)-3-methylpyrrolidin-1-yl)-1H-benzo[d]imidazol-1-yl)methyl)benzonitrile]"
19,7.45,"CN(C)C(=O)Cn1c(N2CC[C@@H](F)[C@H](N)C2)nc2ccc(F)cc21 [Example 566, 2-(2-((3R,4R)-3-amino-4-fluoropiperidin-1-yl)-6-fluoro-1H-benzo[d]imidazol-1-yl)-N,N-dimethylacetamide]"
20,< 5.43,"N#Cc1ccc(Cn2c(N3CCC[C@]4(CCN4)C3)nc3ccccc32)nc1 [Example 28, (S)-6-((2-(1,6-diazaspiro[3.5]nonan-6-yl)-1H-benzo[d]imidazol-1-yl)methyl)nicotinonitrile]"
21,5.53,"N[C@@H]1CN(c2nc3cc(F)c(F)cc3n2Cc2cccc(C(F)(F)F)c2)CC[C@H]1F [Example 365, (3R,4R)-1-(5,6-difluoro-1-(3-(trifluoromethyl)benzyl)-1H-benzimidazol-2-yl)-4-fluoro-3-piperidinamine]"
22,9.54,"N[C@@H]1CN(c2nc3c(F)cc(F)cc3n2Cc2ncc(Cl)cn2)CC[C@H]1F [Example 258, (3R,4R)-1-(1-((5-chloro-2-pyrimidinyl)methyl)-4,6-difluoro-1H-benzimidazol-2-yl)-4-fluoro-3-piperidinamine]"
23,< 5.43,"N#Cc1ccc(Cn2c(N3CC[C@@H](O)[C@H](N)C3)nc3ccccc32)nc1 [Example 95, 6-((2-((3R,4R)-3-amino-4-hydroxypiperidin-1-yl)-1H-benzo[d]imidazol-1-yl)methyl)nicotinonitrile]"
24,8.74,"N#Cc1ccc(Cn2c(N3CC[C@H](F)[C@H](N)C3)nc3ccc(C#N)cc32)nc1 [Example 68, 2-((3R,4S)-3-amino-4-fluoropiperidin-1-yl)-1-((5-cyanopyridin-2-yl)methyl)-1H-benzo[d]imidazole-6-carbonitrile]"
25,< 5.43,"CS(=O)(=O)c1ccc(Cn2c(N3CC[C@@H](F)[C@H](N)C3)nc3cc(F)cc(F)c32)nc1 [Example 595, (3R,4R)-1-(5,7-difluoro-1-((5-(methylsulfonyl)pyridin-2-yl)methyl)-1H-benzo[d]imidazol-2-yl)-4-fluoropiperidin-3-amine]"
